{"source": "ChEMBL document CHEMBL5678810", "key": {"[1]": {"molecular_target": "Serine/threonine-protein kinase PLK4 (Homo sapiens) (UniProt O00444)", "assay": "Inhibition of T7 bacteriophage fused human PLK4 at 10 uM by KINOMEscan analysis relative to control"}, "[2]": {"test_system": "Tyrosine-protein kinase ABL1 (Homo sapiens), P00519 [T315I]", "assay": "Inhibition of T7 bacteriophage fused human phosphorylated ABL1 T315I mutant at 10 uM by KINOMEscan analysis relative to control"}, "[3]": {"molecular_target": "Dual specificity mitogen-activated protein kinase kinase 1 (Homo sapiens) (UniProt Q02750)", "assay": "Inhibition of T7 bacteriophage fused human MEK1 at 10 uM by KINOMEscan analysis relative to control"}, "[4]": {"test_system": "Phosphatidylinositol 4,5-bisphosphate 3-kinase catalytic subunit alpha isoform (Homo sapiens), P42336 [E545A]", "sequence (P42336 whole entry E545A, the tested form may be a part, canonical isoform)": "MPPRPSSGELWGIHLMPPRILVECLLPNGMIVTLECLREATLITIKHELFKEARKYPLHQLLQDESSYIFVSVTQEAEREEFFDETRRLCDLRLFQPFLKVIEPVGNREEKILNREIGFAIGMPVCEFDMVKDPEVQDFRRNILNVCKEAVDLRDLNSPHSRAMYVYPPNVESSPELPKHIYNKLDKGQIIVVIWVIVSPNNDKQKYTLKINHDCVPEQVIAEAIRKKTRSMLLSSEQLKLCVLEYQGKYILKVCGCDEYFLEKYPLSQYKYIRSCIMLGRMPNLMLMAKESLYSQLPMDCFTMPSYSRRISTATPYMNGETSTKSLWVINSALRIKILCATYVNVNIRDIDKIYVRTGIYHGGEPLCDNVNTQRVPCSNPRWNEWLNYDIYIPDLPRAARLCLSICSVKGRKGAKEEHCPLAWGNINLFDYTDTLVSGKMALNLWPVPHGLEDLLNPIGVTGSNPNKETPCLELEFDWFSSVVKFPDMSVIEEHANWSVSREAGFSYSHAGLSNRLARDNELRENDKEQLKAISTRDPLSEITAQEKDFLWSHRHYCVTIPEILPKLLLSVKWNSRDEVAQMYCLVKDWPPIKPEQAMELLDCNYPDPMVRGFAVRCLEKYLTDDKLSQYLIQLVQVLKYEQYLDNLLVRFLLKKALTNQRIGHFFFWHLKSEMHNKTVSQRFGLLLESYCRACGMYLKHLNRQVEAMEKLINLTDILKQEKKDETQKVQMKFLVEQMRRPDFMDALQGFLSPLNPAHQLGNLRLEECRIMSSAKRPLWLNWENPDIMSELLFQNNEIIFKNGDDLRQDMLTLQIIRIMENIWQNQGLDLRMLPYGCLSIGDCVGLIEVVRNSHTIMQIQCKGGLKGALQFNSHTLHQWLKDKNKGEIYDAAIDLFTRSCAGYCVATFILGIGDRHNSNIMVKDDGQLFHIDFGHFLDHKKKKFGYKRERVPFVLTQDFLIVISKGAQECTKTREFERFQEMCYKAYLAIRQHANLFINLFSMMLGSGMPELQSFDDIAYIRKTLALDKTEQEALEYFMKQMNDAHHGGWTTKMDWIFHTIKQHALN", "assay": "Inhibition of T7 bacteriophage fused human PIK3CA E545A mutant at 10 uM by KINOMEscan analysis relative to control"}, "[5]": {"molecular_target": "Serine/threonine-protein kinase pim-3 (Homo sapiens) (UniProt Q86V86)", "assay": "Inhibition of T7 bacteriophage fused human PIM3 at 10 uM by KINOMEscan analysis relative to control"}, "[6]": {"test_system": "Phosphatidylinositol 4,5-bisphosphate 3-kinase catalytic subunit alpha isoform (Homo sapiens), P42336 [Q546K]", "sequence (P42336 whole entry Q546K, the tested form may be a part, canonical isoform)": "as the sequence (P42336 whole entry E545A, the tested form may be a part, canonical isoform) above, with A545E, Q546K counted along it", "assay": "Inhibition of T7 bacteriophage fused human PIK3CA Q546K mutant at 10 uM by KINOMEscan analysis relative to control"}, "[7]": {"molecular_target": "Dual specificity mitogen-activated protein kinase kinase 6 (Homo sapiens) (UniProt P52564)", "assay": "Inhibition of T7 bacteriophage fused human MEK6 at 10 uM by KINOMEscan analysis relative to control; values are per cent of control"}, "[8]": {"test_system": "Tyrosine-protein kinase ABL1 (Homo sapiens), P00519 [H396P]", "assay": "Inhibition of T7 bacteriophage fused human nonphosphorylated ABL1 H396P mutant at 10 uM by KINOMEscan analysis relative to control"}, "[9]": {"molecular_target": "Myosin-IIIb (Homo sapiens) (UniProt Q8WXR4)", "assay": "Inhibition of T7 bacteriophage fused human MYO3B at 10 uM by KINOMEscan analysis relative to control"}, "[10]": {"molecular_target": "Serine/threonine-protein kinase PLK1 (Homo sapiens) (UniProt P53350)", "assay": "Inhibition of T7 bacteriophage fused human PLK1 at 10 uM by KINOMEscan analysis relative to control"}, "[11]": {"molecular_target": "Cyclin-G-associated kinase (Homo sapiens) (UniProt O14976)", "assay": "Inhibition of T7 bacteriophage fused human GAK at 10 uM by KINOMEscan analysis relative to control; values are per cent of control"}, "[12]": {"molecular_target": "Tyrosine-protein kinase receptor UFO (Homo sapiens) (UniProt P30530)", "assay": "Inhibition of T7 bacteriophage fused human AXL at 10 uM by KINOMEscan analysis relative to control"}, "[13]": {"molecular_target": "Calcium/calmodulin-dependent protein kinase kinase 2 (Homo sapiens) (UniProt Q96RR4)", "assay": "Inhibition of T7 bacteriophage fused human CAMKK2 at 10 uM by KINOMEscan analysis relative to control"}, "[14]": {"molecular_target": "Tyrosine-protein kinase Fer (Homo sapiens) (UniProt P16591)", "sequence (P16591 whole entry, looked up, the tested form may be a part)": "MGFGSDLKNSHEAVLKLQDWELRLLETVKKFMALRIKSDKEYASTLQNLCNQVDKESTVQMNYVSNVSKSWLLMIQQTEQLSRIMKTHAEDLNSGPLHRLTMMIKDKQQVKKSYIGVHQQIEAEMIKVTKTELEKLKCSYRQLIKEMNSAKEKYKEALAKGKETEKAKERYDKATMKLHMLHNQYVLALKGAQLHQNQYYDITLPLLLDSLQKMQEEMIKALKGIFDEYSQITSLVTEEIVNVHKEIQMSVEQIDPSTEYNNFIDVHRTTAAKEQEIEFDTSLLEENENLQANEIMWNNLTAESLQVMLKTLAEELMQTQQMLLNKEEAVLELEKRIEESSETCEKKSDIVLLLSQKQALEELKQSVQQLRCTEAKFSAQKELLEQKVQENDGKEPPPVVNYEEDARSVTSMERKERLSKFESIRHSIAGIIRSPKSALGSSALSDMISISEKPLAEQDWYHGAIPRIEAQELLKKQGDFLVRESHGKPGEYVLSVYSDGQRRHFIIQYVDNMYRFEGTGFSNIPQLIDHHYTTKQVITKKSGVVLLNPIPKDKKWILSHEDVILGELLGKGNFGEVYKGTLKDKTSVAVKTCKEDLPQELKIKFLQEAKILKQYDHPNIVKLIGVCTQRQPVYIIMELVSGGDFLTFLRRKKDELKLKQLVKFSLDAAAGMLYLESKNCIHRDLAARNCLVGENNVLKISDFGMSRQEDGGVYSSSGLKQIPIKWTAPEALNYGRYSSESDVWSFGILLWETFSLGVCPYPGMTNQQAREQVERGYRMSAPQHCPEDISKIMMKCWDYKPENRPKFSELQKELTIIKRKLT", "assay": "Inhibition of T7 bacteriophage fused human FER at 10 uM by KINOMEscan analysis relative to control; values are per cent of control"}, "[15]": {"molecular_target": "Serine/threonine-protein kinase PAK 1 (Homo sapiens) (UniProt Q13153)", "assay": "Inhibition of T7 bacteriophage fused human PAK1 at 10 uM by KINOMEscan analysis relative to control"}, "[16]": {"molecular_target": "Cyclin-dependent kinase 9 (Homo sapiens) (UniProt P50750)", "assay": "Inhibition of T7 bacteriophage fused human CDK9 at 10 uM by KINOMEscan analysis relative to control"}, "[17]": {"molecular_target": "Cyclin-dependent kinase 11B (Homo sapiens) (UniProt P21127)", "sequence (P21127 whole entry, the tested form may be a part)": "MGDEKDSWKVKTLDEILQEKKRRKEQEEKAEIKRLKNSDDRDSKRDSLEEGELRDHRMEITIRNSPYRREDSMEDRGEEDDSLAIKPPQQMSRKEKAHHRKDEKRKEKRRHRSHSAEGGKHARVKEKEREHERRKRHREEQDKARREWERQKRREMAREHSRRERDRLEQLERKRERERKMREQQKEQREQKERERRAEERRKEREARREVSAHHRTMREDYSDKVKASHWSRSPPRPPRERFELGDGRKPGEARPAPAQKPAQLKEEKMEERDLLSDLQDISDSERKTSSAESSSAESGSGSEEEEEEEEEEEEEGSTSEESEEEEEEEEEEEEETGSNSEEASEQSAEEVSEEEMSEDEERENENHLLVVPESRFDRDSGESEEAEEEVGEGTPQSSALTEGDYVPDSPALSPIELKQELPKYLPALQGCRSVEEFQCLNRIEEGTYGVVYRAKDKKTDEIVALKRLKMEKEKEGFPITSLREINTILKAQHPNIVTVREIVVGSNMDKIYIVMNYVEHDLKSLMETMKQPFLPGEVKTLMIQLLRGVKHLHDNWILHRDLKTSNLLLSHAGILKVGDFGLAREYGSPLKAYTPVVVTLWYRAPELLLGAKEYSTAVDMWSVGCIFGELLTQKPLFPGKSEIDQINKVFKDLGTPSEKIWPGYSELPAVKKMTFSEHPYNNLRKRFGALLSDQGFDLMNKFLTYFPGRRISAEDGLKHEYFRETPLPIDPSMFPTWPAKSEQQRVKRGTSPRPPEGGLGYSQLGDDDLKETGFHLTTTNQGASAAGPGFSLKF", "assay": "Inhibition of T7 bacteriophage fused human CDC2L1 at 10 uM by KINOMEscan analysis relative to control"}, "[18]": {"test_system": "Phosphatidylinositol 4,5-bisphosphate 3-kinase catalytic subunit alpha isoform (Homo sapiens), P42336 [C420R]", "sequence (P42336 whole entry C420R, the tested form may be a part, canonical isoform)": "as the sequence (P42336 whole entry E545A, the tested form may be a part, canonical isoform) above, with C420R, A545E counted along it", "assay": "Inhibition of T7 bacteriophage fused human PIK3CA C420R mutant at 10 uM by KINOMEscan analysis relative to control"}, "[19]": {"molecular_target": "G protein-coupled receptor kinase 4 (Homo sapiens) (UniProt P32298)", "sequence (P32298 whole entry, looked up, the tested form may be a part)": "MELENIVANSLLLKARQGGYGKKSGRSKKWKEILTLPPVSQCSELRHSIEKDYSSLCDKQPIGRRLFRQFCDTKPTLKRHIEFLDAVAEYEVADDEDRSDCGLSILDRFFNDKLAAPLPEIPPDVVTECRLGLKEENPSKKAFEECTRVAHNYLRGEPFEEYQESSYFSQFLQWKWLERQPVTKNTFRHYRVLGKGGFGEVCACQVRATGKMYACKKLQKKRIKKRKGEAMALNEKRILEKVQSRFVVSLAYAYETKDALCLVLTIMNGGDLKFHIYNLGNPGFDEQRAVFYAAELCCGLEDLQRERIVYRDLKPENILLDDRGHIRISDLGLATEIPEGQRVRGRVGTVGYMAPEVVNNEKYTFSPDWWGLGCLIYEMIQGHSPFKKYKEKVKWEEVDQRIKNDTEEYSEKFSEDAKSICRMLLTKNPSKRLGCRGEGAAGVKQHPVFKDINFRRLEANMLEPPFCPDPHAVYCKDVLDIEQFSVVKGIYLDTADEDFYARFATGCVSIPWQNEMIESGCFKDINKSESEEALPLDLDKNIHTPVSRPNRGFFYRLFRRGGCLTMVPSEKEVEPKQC", "assay": "Inhibition of T7 bacteriophage fused human GRK4 at 10 uM by KINOMEscan analysis relative to control; values are per cent of control"}, "[20]": {"molecular_target": "Serine/threonine-protein kinase Nek5 (Homo sapiens) (UniProt Q6P3R8)", "assay": "Inhibition of T7 bacteriophage fused human NEK5 at 10 uM by KINOMEscan analysis relative to control"}, "[21]": {"molecular_target": "Tyrosine-protein kinase JAK3 (Homo sapiens) (UniProt P52333)", "assay": "Inhibition of T7 bacteriophage fused human JAK3 JH1catalytic domain at 10 uM by KINOMEscan analysis relative to control"}, "[22]": {"molecular_target": "Tyrosine-protein kinase ZAP-70 (Homo sapiens) (UniProt P43403)", "assay": "Inhibition of T7 bacteriophage fused human ZAP70 at 10 uM by KINOMEscan analysis relative to control"}, "[23]": {"molecular_target": "Calcium/calmodulin-dependent protein kinase type II subunit delta (Homo sapiens) (UniProt Q13557)", "assay": "Inhibition of T7 bacteriophage fused human CAMK2D at 10 uM by KINOMEscan analysis relative to control"}, "[24]": {"molecular_target": "Inhibitor of nuclear factor kappa-B kinase subunit beta (Homo sapiens) (UniProt O14920)", "assay": "Inhibition of T7 bacteriophage fused human IKK-beta at 10 uM by KINOMEscan analysis relative to control"}, "[25]": {"molecular_target": "Phosphatidylinositol 5-phosphate 4-kinase type-2 beta (Homo sapiens) (UniProt P78356)", "assay": "Inhibition of T7 bacteriophage fused human PIP5K2B at 10 uM by KINOMEscan analysis relative to control"}, "[26]": {"molecular_target": "Mitogen-activated protein kinase 6 (Homo sapiens) (UniProt Q16659)", "sequence (Q16659 whole entry, the tested form may be a part)": "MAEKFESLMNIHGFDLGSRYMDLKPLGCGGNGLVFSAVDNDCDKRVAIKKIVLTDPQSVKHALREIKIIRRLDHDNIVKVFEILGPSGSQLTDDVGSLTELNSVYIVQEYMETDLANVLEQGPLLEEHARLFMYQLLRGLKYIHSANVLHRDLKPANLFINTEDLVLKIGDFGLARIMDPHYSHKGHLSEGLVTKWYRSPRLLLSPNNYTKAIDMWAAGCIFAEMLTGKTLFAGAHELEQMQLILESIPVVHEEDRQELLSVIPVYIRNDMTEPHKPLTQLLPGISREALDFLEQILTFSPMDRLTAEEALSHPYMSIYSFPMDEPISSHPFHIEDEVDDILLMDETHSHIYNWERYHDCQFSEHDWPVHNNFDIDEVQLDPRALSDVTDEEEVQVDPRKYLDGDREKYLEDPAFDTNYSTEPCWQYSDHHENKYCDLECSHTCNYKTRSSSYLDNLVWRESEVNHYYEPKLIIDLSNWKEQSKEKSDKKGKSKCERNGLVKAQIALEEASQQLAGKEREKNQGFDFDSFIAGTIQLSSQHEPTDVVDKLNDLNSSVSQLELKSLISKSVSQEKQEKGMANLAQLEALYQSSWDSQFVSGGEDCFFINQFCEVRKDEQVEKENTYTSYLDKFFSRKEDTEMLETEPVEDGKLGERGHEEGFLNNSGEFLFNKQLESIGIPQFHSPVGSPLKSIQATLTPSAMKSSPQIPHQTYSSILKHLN", "assay": "Inhibition of T7 bacteriophage fused human ERK3 at 10 uM by KINOMEscan analysis relative to control"}, "[27]": {"molecular_target": "RAC-gamma serine/threonine-protein kinase (Homo sapiens) (UniProt Q9Y243)", "sequence (Q9Y243 whole entry, the tested form may be a part)": "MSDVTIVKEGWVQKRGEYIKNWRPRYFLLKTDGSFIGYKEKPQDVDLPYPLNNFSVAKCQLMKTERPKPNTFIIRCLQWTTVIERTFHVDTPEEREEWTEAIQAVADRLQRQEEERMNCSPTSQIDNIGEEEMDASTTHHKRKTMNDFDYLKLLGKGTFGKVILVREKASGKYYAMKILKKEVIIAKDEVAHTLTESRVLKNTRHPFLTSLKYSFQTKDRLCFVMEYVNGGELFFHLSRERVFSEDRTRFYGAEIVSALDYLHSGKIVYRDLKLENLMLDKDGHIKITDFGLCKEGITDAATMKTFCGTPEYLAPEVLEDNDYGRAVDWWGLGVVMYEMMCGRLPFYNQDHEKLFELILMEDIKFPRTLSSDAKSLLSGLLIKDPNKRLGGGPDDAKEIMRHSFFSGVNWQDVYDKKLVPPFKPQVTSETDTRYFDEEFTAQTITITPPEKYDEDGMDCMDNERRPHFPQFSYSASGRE", "assay": "Inhibition of T7 bacteriophage fused human AKT3 at 10 uM by KINOMEscan analysis relative to control"}, "[28]": {"molecular_target": "Serine/threonine-protein kinase tousled-like 1 (Homo sapiens) (UniProt Q9UKI8)", "assay": "Inhibition of T7 bacteriophage fused human TLK1 at 10 uM by KINOMEscan analysis relative to control"}, "[29]": {"molecular_target": "Serine/threonine-protein kinase TNNI3K (Homo sapiens) (UniProt Q59H18)", "assay": "Inhibition of T7 bacteriophage fused human TNNI3K at 10 uM by KINOMEscan analysis relative to control"}, "[30]": {"molecular_target": "Discoidin domain-containing receptor 2 (Homo sapiens) (UniProt Q16832)", "assay": "Inhibition of T7 bacteriophage fused human DDR2 at 10 uM by KINOMEscan analysis relative to control"}}}
{"compound": "COc1cc(N2CCC(N3CCN(C)CC3)CC2)ccc1Nc1ncc2c(n1)N(C)c1ccccc1C(=O)N2C", "values": [{"measurement": "inhibition", "setting": "[1]", "result": 0, "unit": "%"}, {"measurement": "inhibition", "setting": "[2]", "result": 58, "unit": "%"}, {"measurement": "inhibition", "setting": "[3]", "result": 100, "unit": "%"}, {"measurement": "inhibition", "setting": "[4]", "result": 98, "unit": "%"}, {"measurement": "inhibition", "setting": "[5]", "result": 88, "unit": "%"}, {"measurement": "inhibition", "setting": "[6]", "result": 91, "unit": "%"}, {"measurement": "residual activity", "setting": "[7]", "result": 83, "unit": "%"}, {"measurement": "inhibition", "setting": "[8]", "result": 100, "unit": "%"}, {"measurement": "inhibition", "setting": "[9]", "result": 83, "unit": "%"}, {"measurement": "inhibition", "setting": "[10]", "result": 0.7, "unit": "%"}, {"measurement": "residual activity", "setting": "[11]", "result": 16, "unit": "%"}, {"measurement": "inhibition", "setting": "[12]", "result": 100, "unit": "%"}, {"measurement": "inhibition", "setting": "[13]", "result": 31, "unit": "%"}, {"measurement": "residual activity", "setting": "[14]", "result": 51, "unit": "%"}, {"measurement": "inhibition", "setting": "[15]", "result": 95, "unit": "%"}, {"measurement": "inhibition", "setting": "[16]", "result": 100, "unit": "%"}, {"measurement": "inhibition", "setting": "[17]", "result": 84, "unit": "%"}, {"measurement": "inhibition", "setting": "[18]", "result": 89, "unit": "%"}, {"measurement": "residual activity", "setting": "[19]", "result": 86, "unit": "%"}, {"measurement": "inhibition", "setting": "[20]", "result": 100, "unit": "%"}, {"measurement": "inhibition", "setting": "[21]", "result": 100, "unit": "%"}, {"measurement": "inhibition", "setting": "[22]", "result": 79, "unit": "%"}, {"measurement": "inhibition", "setting": "[23]", "result": 28, "unit": "%"}, {"measurement": "inhibition", "setting": "[24]", "result": 89, "unit": "%"}, {"measurement": "inhibition", "setting": "[25]", "result": 100, "unit": "%"}, {"measurement": "inhibition", "setting": "[26]", "result": 100, "unit": "%"}, {"measurement": "inhibition", "setting": "[27]", "result": 100, "unit": "%"}, {"measurement": "inhibition", "setting": "[28]", "result": 100, "unit": "%"}, {"measurement": "inhibition", "setting": "[29]", "result": 100, "unit": "%"}, {"measurement": "inhibition", "setting": "[30]", "result": 100, "unit": "%"}]}
